Data: US6060608A, “Analogs of CC-1065 and the duocarmycins” (The Scripps Research Institute, priority 1999, dated 2000)
pIC50: −log10 of the molar value. Like-named read-outs stand apart in the source and are kept apart here.

Assays:
w794 duplex DNA = assay: DNA alkylation selectivity and efficiency within w794 DNA, thermally-induced strand cleavage and PAGE; format: biochemical, SV40; details: for DNA alkylation efficiency, natural/unnatural enantiomer ratio: (+)/ent-(-)
Excerpt: DNA Alkylation Selectivity and Efficiency. The DNA alkylation properties of the agents were examined within w794 duplex DNA, a 144 base-pair segment of duplex DNA for which comparative results are available for related agents. The alkylation site identification and the assessment of the relative selectivity among the available sites were obtained by thermally-induced strand cleavage of the singly 5' end-labeled duplex DNA after exposure to the agents. Following treatment of the end-labeled duplex DNA with a range of agent concentrations, the unbound agent was removed by EtOH precipitation of the DNA. Redissolution of the DNA in aqueous buffer, thermolysis (100° C., 30 min) to induce strand cleavage at the sites of DNA alkylation, denaturing high resolution polyacrylamide gel electrophoresis (PAGE) adjacent to Sanger dideoxynucleotide sequencing standards, and autoradiography led to identification of the DNA cleavage and alkylation sites. The DNA alkylation reaction selectivities observed under the incubation conditions for the agents detailed herein have proven identical to the alkylation selectivities observed with shorter or extended reaction periods or when the reactions were conducted at different temperatures (37 or 4° C., 0.5-7 d). As discussed below, the rates and efficiencies but not final relative efficiencies of DNA alkylation were altered by changing the reaction temperatures.
DNA Alkylation Properties. […] The DNA alkylation reaction was examined within w794 DNA for which comparative results are available for past agents. The alkylation site identification was obtained by thermal strand cleavage of the singly 5' end-labeled duplex DNA after exposure to the agents. Following treatment of the labeled DNA with a range of agent concentrations, the unbound agent was removed by EtOH precipitation of the DNA. Redissolution of the DNA in aqueous buffer, thermolysis at 100° C. (30 min) to induce depurination and strand cleavage at the adenine N3 or guanine N3 minor groove alkylation sites, denaturing high resolution PAGE adjacent to Sanger sequencing standards and autoradiography provided the DNA cleavage and alkylation sites.
DNA Alkylation Studies: selectivity and Efficiency. General procedures, the preparation of singly ^32 P 5' end-labeled double stranded DNA, the agent binding studies, gel electrophoresis, and autoradiography were conducted according to standard procedures. Eppendorf tubes containing the 5' end-labeled DNA (9 μL) in TE buffer (10 mM Tris, 1 mM EDTA, pH 7.5) were treated with the agent in DMSO (1 μL at the specified concentration). The solution was mixed by vortexing and brief centrifugation and subsequently incubated at 4 or 25° C. for 24 h (natural enantiomers) and 25 or 37° C. (unnatural enantiomers) for 72 h. The covalently modified DNA was separated from unbound agent by EtOH precipitation and resuspended in TE buffer (10 μL). The solution of DNA in an Eppendorf tube sealed with parafilm was warmed at 100° C. for 30 min to induce cleavage at the alkylation sites, allowed to cool to 25° C. and centrifuged. Formamide dye (0.03% xylene cyanol FF, 0.03% bromophenol blue, 8.7% Na2 EDTA 250 mM) was added (5 μL) to the supernatant. Prior to electrophoresis, the sample was denatured by warming at 100° C. for 5 min, placed in an icebath, and centrifuged, and the supernatant (3 μL) was loaded directly onto the gel. Sanger dideoxynucleotide sequencing reactions were run as standards adjacent to the reaction samples. Polyacrylamide gel electrophoresis (PAGE) was run on an 8% sequencing gel under denaturing conditions (8 M urea) in TBE buffer (100 mM Tris, 100 mM boric acid, 0.2 mM Na2 EDTA) followed by autoradiography.
DNA Alkylation of w794 DNA. Eppendorf tubes containing the 5'-end labeled DNA (9 μL) in TE buffer (10 mM Tris, 1 mM EDTA, pH 7.2) were treated with the agent in DMSO (1 μL at the specified concentration). […]

L1210 = assay: In vitro cytotoxic activity, L1210
[1] = Aqueous solvolysis reactivity followed by UV; format: physicochemical
Protocol: The reactivity of 217-219 was assessed by following the solvolysis spectrophotometrically by UV at both pH 3 (50% CH3 OH-buffer, buffer=4:1:20 (v/v/v) 0.1 M citric acid, 0.2 M Na2 HPO4, H2 O) and pH 7 (1:1 H2 O--CH3 OH) measuring both the disappearance of the long-wavelength absorption band of the F2 CBI chromophore and the appearance of a short-wavelength absorption band attributable to the ring open products (FIG. 31).
Aqueous Solvolysis Reactivity. pH 3: N-BOC-CCBI (25, 100 μg) was dissolved in CH3 OH (1.5 mL) and mixed with pH 3 aqueous buffer (1.5 mL). The buffer contained 4:1:20 (v:v:v) 0.1 M citric acid, 0.2 M Na2 HPO4 and H2 O, respectively. The solvolysis solution was sealed and kept at 25° C. protected from light. The UV spectrum was measured at regular intervals every 2 h during the first day, every 12 h for another week, and every 24 h for an additional week. The decrease in the long-wavelength absorption at 322 nm and the increase in the short-wavelength absorption at 268 nm were monitored, FIG. 1.
pH 2: Samples of 25 (100 μg) and 26 (50 μg) were dissolved in CH3 OH (1.5 mL) and the solutions were mixed with aqueous buffer (pH 2.05, 1.5 mL). The buffer contained 4:1:20 (v:v:v) 1.0 M citric acid, 0.2 M Na2 HPO4, and H2 O, respectively. Immediately after mixing, the UV spectra of the solutions were measured against a reference solution containing CH3 OH (1.5 mL) and the aqueous buffer (1.5 mL) and these readings were used for the initial absorbance values. The solutions were stoppered, protected from the light, and allowed to stand at 25° C. UV spectra were recorded at regular intervals until constant values were obtained for the long and short wavelength absorbances. The solvolysis rate constants were determined from the slope of the lines obtained from linear least squares treatment of plots of ln[(Af -Ai)/(Af -A)] versus time using the short wavelength measurements for 25 and long wavelength measurements for 26).

## COc1cc2cc(C(=O)N3CC4C(F)(F)C45C3=CC(=O)c3ccccc35)[nH]c2c(OC)c1OC (racemic) [compound 224]
w794 duplex DNA
  DNA alkylation properties, comparison in words: steadily increase as the temperature was decreased from 37 to 25 to 4 °C
w794 duplex DNA; listed as F2 CBI-TMI
  DNA alkylation sequence selectivity: only adenine N3 alkylation was detected
w794 duplex DNA; racemic
  DNA alkylation less efficient than CBI-TMI: 100-1000 ×
w794 duplex DNA; racemic F2 CBI-TMI versus (+)-CBI-TMI
  DNA alkylation less efficient, by densitometry, average of several comparisons: 675-725 ×

## N#Cc1ccc2c(c1)C13CC1CN(C(=O)c1cc4c5c(ccc4[nH]1)N(C(N)=O)CC5)C3=CC2=O (single isomer, unassigned) [compound 39]
w794 duplex DNA
  DNA alkylation sequence selectivity: strong preference but not absolute requirement for the fourth 5' base to be A or T versus G or C

## COC(=O)c1cc2c([nH]1)C(=O)C=C1N(C(=O)c3cc4cc(OC)c(OC)c(OC)c4[nH]3)CC3CC123 (single isomer, unassigned) [ent-(-)-duocarmycin SA (2), reference compound]
w794 duplex DNA
  DNA alkylation properties, comparison in words: slightly more effective

## CC(C)(C)OC(=O)N1CC2CC23C1=CC(=O)c1ccccc13 (single isomer, unassigned; (+)) [(+)-N-BOC-CBI, reference compound]
w794 duplex DNA
  DNA alkylation efficiency, natural/unnatural enantiomer ratio: 5-10 ×

## COc1ccc2c(c1)C13CC1CN(C(=O)OC(C)(C)C)C3=CC2=O (single isomer, unassigned; (+)) [(+)-N-BOC-MCBI, reference compound]
w794 duplex DNA
  DNA alkylation efficiency, natural/unnatural enantiomer ratio: 1-2 ×

## COc1cc2cc(C(=O)N3C[C@H]4C[C@@]45C3=CC(=O)c3ccc(C#N)cc35)[nH]c2c(OC)c1OC [(+)-CCBI-TMI (35)]
w794 duplex DNA
  DNA alkylation properties, comparison in words: exhibited the same selectivity and efficiency of DNA alkylation
w794 duplex DNA; 25° C., 24 h
  concentration of detectable alkylation of high affinity site 5'-AATTA: 10^-6 to 10^-7 M

## CC(C)(C)OC(=O)N1C[C@H]2C[C@@]23C1=CC(=O)c1ccc(C#N)cc13 [(+)-N-BOC-CCBI, N-(tert-Butyloxycarbonyl)-7-cyano-1,2,9,9a-tetrahydrocyclopropa[c]benz[e]indol-4-one]
w794 duplex DNA
  DNA alkylation efficiency, natural/unnatural enantiomer ratio: 1-2 ×

## N#Cc1ccc2c(c1)[C@]13C[C@H]1CN(C(=O)c1cc4c5c(ccc4[nH]1)N(C(N)=O)CC5)C3=CC2=O [(-)-CCBI-CDPI1]
w794 duplex DNA
  DNA alkylation properties, comparison in words: (-)-CCBI-indole2 >(-)-CCBI-CDPI1>(-)-CCBI-TMI

## N#Cc1ccc2c(c1)[C@]13C[C@H]1CN(C(=O)c1cc4cc(NC(=O)c5cc6ccccc6[nH]5)ccc4[nH]1)C3=CC2=O [(-)-CCBI-indole2]
w794 duplex DNA
  DNA alkylation properties, comparison in words: (-)-CCBI-indole2 >(-)-CCBI-CDPI1>(-)-CCBI-TMI

## CC(C)(C)OC(=O)N1CC(CCl)c2c1cc(O)c1ccc(C#N)cc21 (stereo not drawn) [compound 23, 3-(tert-Butyloxycarbonyl)-1-(chloromethyl)-8-cyano-5-hydroxy-1,2-dihydro-3H-benz[e]indole]
L1210
  cytotoxic activity of seco precursors versus cyclopropane containing agents: indistinguishable from the cyclopropane containing agents

## N#Cc1ccc2c(c1)C13CC1CNC3=CC2=O (stereo not drawn) [compound 26, 7-Cyano-1,2,9,9a-tetrahydrocyclopropa[c]benz[e]indol-4-one]
[1]; ch3oh-buffer 1:1, pH 2
  half-life: 91.5 h

## COc1cc2cc(C(=O)N3CC(CCl)c4c3cc(O)c3ccc(C#N)cc43)[nH]c2c(OC)c1OC (stereo not drawn) [compound 34]
L1210
  cytotoxic activity of seco precursors versus cyclopropane containing agents: indistinguishable from the cyclopropane containing agents

## N#Cc1ccc2c(O)cc3c(c2c1)C(CCl)CN3C(=O)c1cc2cc(NC(=O)c3cc4ccccc4[nH]3)ccc2[nH]1 (stereo not drawn) [compound 36]
L1210
  cytotoxic activity of seco precursors versus cyclopropane containing agents: indistinguishable from the cyclopropane containing agents

## N#Cc1ccc2c(O)cc3c(c2c1)C(CCl)CN3C(=O)c1cc2c3c(ccc2[nH]1)N(C(N)=O)CC3 (stereo not drawn) [compound 38]
L1210
  cytotoxic activity of seco precursors versus cyclopropane containing agents: indistinguishable from the cyclopropane containing agents

## CCOC(=O)C(=O)N1CC(CCl)c2c1cc(O)c1ccccc21 (stereo not drawn) [compound 114, 1-Chloromethyl-3-(2-ethoxy-1,2-dioxoethyl)-5-hydroxy-1,2-dihydro-3H-benz[e]indole]
w794 duplex DNA
  DNA alkylation properties, comparison in words: more effective

## CCOC(=O)CCC(=O)N1CC(CCl)c2c1cc(O)c1ccccc21 (stereo not drawn) [compound 115, 1-Chloromethyl-3-(4-ethoxy-1,4-dioxobutyl)-5-hydroxy-1,2-dihydro-3H-benz[e]indole]
L1210; L1210
  cytotoxic activity, ring opened precursor 115 versus cyclopropane 116: no distinctions were observed
L1210; Mus musculus, L1210, read-out: cytotoxic activity IC50
  pIC50: 8.22 to 8.30

## CC(=O)N1CC2C(F)(F)C23C1=CC(=O)c1ccccc13 (stereo not drawn) [compound 217]
[1]
  solvolysis reactivity relative to corresponding CBI agent lacking the two fluorines: 500 ×
  solvolysis stability/reactivity: No substantial distinction in the reactivity of 217 and 219 was observed

## O=C1C=C2NCC3C(F)(F)C23c2ccccc21 (stereo not drawn) [compound 218, 9,9-difluoro-1,2,9,9a-tetrahydrocyclopropa[c]benzo[e]indol-4-one]
[1]
  solvolysis reactivity relative to corresponding CBI agent lacking the two fluorines: approximately 220 ×
[1]; 50% ch3oh-buffer, pH 3
  half-life: 4.2 h
[1]; pH 3, 50% CH3OH-buffer
  solvolysis rate constant k: 4.54e-05 s⁻¹

## CC(C)(C)OC(=O)N1CC2C(F)(F)C23C1=CC(=O)c1ccccc13 (stereo not drawn) [compound 219]
[1]
  solvolysis stability/reactivity: No substantial distinction in the reactivity of 217 and 219 was observed
[1]; 1:1 h2o-ch3oh, pH 7
  half-life: 2.33 h
[1]; 50% ch3oh-buffer, pH 3
  half-life: 0.26 h
[1]; pH 3, 50% CH3OH-buffer
  solvolysis rate constant k: 0.000705 s⁻¹
[1]; pH 7, 1:1 H2O-CH3OH
  solvolysis rate constant k: 8.27e-05 s⁻¹

## COc1cc2cc(C(=O)N3C[C@@H]4C[C@]45C3=CC(=O)c3ccc(C#N)cc35)[nH]c2c(OC)c1OC [ent-(-)-CCBI-TMI (35)]
w794 duplex DNA
  DNA alkylation properties, comparison in words: nearly indistinguishable
w794 duplex DNA; listed as (-)-CCBI-TMI
  DNA alkylation properties, comparison in words: (-)-CCBI-indole2 >(-)-CCBI-CDPI1>(-)-CCBI-TMI
